Common to all, as to conditions: Homo sapiens
For test [1], the system named is HeLa. Kind of test: Compound was tested for its inhibition of HIV-1 induced focus formation in MAGI-CCR5 cells in strains like IIIB-R(Y181C). It is filed as functional, cell-based.
The test system of test [2] is HeLa. Nature of the test: Compound was tested for its inhibition of HIV-1 induced focus formation in MAGI-CCR5 cells in strains like IIIB. It is filed as functional, cell-based.
Test [3] relates to HeLa. Nature of the test: Compound was tested for its inhibition of HIV-1 induced focus formation in MAGI-CCR5 cells in strains like NL4-3. It is filed as functional, cell-based.
The test system of test [4] is HeLa. Nature of the test: Compound was tested for its inhibition of HIV-1 induced focus formation in MAGI-CCR5 cells in strains like NL4-3K103N. It is filed as functional, cell-based.
For test [5], the system named is HeLa. Kind of test: Compound was tested for its cytotoxicity depending on the viability of mock-infected cells. It is filed as functional.

A value given as a limit tells only on which side of the number the result lay.

The source of these data is ChEMBL document CHEMBL1132459, “Design of MKC-442 (emivirine) analogues with improved activity against drug-resistant HIV mutants” (J Med Chem, 1999).

One may read the EC50 as the concentration giving half of the maximal effect. The low end stands for an effect from little substance, the high end for a need for much substance. What is called CC50 is the concentration giving 50% cytotoxicity. Read a high CC50 as lower toxicity to the cells.

`CCOCn1c(SC2CCCCC2)c(C(C)C)c(=O)[nH]c1=O`: the EC50 with HeLa [1] amounted to 270 nM; with HeLa [2], 3 nM; in the test with HeLa [3], 3 nM; in the test with HeLa [4], 250 nM. In addition, the CC50 in the test on HeLa [5] was determined as 74800 nM.
As to `CCOCn1c(Cc2cc(C)cc(C)c2)c(C(C)C)c(=O)[nH]c1=O`, the EC50 in the test with HeLa [1] stood at 180 nM; in the test on HeLa [2], 1 nM; with HeLa [3], 1 nM; with HeLa [4], 40 nM. Half-maximal cytotoxicity in the test on HeLa [5] (CC50) was put at 52500 nM.
Regarding `CCOCn1c(Cc2ccccc2)c(C(C)C)c(=O)[nH]c1=O` [EMIVIRINE], the EC50 worked out at 13400 nM in the test on HeLa [1], 4 nM with HeLa [2], 1 nM in the test on HeLa [3] and 1260 nM with HeLa [4]. Also, in the test on HeLa [5], the CC50 is greater than 100000 nM.
